Read-outs that look alike come from different tables or passages of the source.
How the values were obtained:
[1] = tested on: T. b. brucei TREU667; test: Mouse efficacy model of chronic T. brucei infection; type: in vivo; conditions: single intraperitoneal dose 10 mg/kg on day 21
Method: For chronic efficacy, experiments were done in compliance with the University of Washington IACUC approved protocol. According to published procedures, groups of 5 mice were infected with 1×10^4 T. b. brucei (strain TREU667) at day 0 to establish a chronic infection. Treatment began on day 21 post-infection, and mice received 50 mg/kg test compound orally b.i.d. for 10 d (total of 20 doses) in a 200 μL volume of a vehicle composed of Phosal 53 MCT (60%), PEG400 (30%) and EtOH (10%). A control group received vehicle with no compound and another control group received a single intraperitoneal dose of diminazene aceturate at 10 mg/kg in water on day 21. […] Post dosing, parasitemia was monitored via microscopic examination of tail blood slides until 180 days post-infection. Mice were removed from the experiment once parasites were detected in the blood.
In a model of the chronic phase of HAT, compound 1 was administered to five mice infected with T. b. brucei TREU667 at 50 mg/kg/po b.i.d.×10 days, beginning 21 days post-infection. […] Efficacy PK blood samples were collected from three of the five mice prior to dose 15, and at 1 h and 6 h post-dose. […] Compound 1 attained 5/5 cures as determined by the absence of detectable parasitemia in any of the treated mice through 180 days post-infection (FIG. 2). […]

[2] = tested on: T. b. brucei; test: In vitro antitrypanosomal activity against T. brucei (growth inhibition); type: cell-based, Trypanosoma brucei; conditions: Trypanosoma brucei; for EC90: read-out: T. brucei EC90
Summary of the method: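 Dose-response EC50 against T. brucei parasites with 0.4% DMSO final, 48 h at 37 °C; parasite density quantified by ATP luminescence (CellTiter-Glo).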

[3] = tested on: Trypanosoma cruzi; test: Efficacy against T. cruzi in vitro; type: cell-based; conditions: Trypanosoma cruzi, Table 10; for EC50: read-out: T.cruzi EC50; for EC90: read-out: T.cruzi EC90
[4] = Metabolic stability in human liver microsomes; type: in vitro ADME; conditions: for Human microsomes, percentage of compound remaining / half-life at 1.5 μM: Table 12; for Human microsomes, percentage of compound remaining: after 60 min (where t1/2 > 60 min); for half-life at 1.5 μM: 37° C., NADPH (1 mM), microsomes 0.5 mg/mL, test compounds 1.5 μM, read-out: Human microsomes t1/2
Method: (§1) Metabolic stability was evaluated using liver microsomes derived from mouse and human sources. Microsomal incubations were carried out according to a protocol described previously (Wang et al., Antimicrob. Agents Chemother. 54:2507 (2010)) with modifications. Briefly, substrate stock solutions were prepared in DMSO and DMSO content was kept at 0.5% (v/v) in final incubations. Incubation mixtures ([…]), liver microsomes (0.5 mg/mL) from mouse (pool of 1000, CD-1 male mouse) or human (pool of 50, mixed gender) (XenoTech LLC, Lenexa, Kans.) in a phosphate buffer (100 mM, pH 7.4) containing 3.3 mM MgCl2. After a 5-minute pre-equilibration period at 37° C., reactions (in triplicate) were initiated by adding the NADPH cofactor (1 mM). For NADPH-independent reactions, the cofactor was replaced with water. Aliquots (10 μl) of the reaction mixtures were removed at 0, 15, 30, and 60 minutes and individually mixed with 200 μL of ice-cold acetonitrile containing internal standard. The mixtures were vortex-mixed, and precipitated protein was removed by centrifugation at 2,250×g for 15 min. The supernatant fractions were dried using a 96-well microplate evaporator (Apricot Designs Inc., Covina, Calif.) under N2 at 50° C. and reconstituted with 100 μL 50% methanol containing 0.1% trifluoroacetic acid before UPLC-MS/MS analysis. In vitro half-life (t1/2) was obtained by analyzing the substrate concentration vs. incubation time curve using the one-phase exponential decay model (GraphPad Prism® 5.0, San Diego, Calif.).

[5] = Metabolic stability in mouse liver microsomes; type: in vitro ADME
Method: as §1

[6] = Distribution between mouse plasma and brain (brain penetration, ip); type: in vivo; conditions: for Kp at 1 h / concentration at 1 h: mouse; for Kp at 1 h: brain and plasma, read-out: Average brain/plasma ratio
Summary of the method: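 Mice (n=3) received a single 5 mg/kg ip dose in 7% Tween 80, 3% ethanol, 5% DMSO, 0.9% saline and were sacrificed 1 h post-dose. Plasma and acetonitrile brain homogenates analysed by LC/MS/MS; brain concentration corrected for 2.5% vasculature volume, assuming 1 g = 1 mL.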

[7] = Mouse oral pharmacokinetics; type: in vivo; conditions: for percent of the Cmax remaining: mouse oral 50 mg/kg
Method: […] Experiments were performed with groups of three mice per compound. Plasma was separated and extracted with acetonitrile for measurements of compound concentrations by liquid chromatography/tandem mass spectrometry.

[8] = tested on: human hepatocytes HepG2; test: Cytotoxicity against HepG2 cells; conditions: for EC50: Homo sapiens, HepG2, read-out: HepG2 EC50; for EC90: read-out: HepG2 EC90, concentration required to inhibit growth by 90%, human hepatocytes
[9] = tested on: human lymphocytes CRL-8155; test: Cytotoxicity against CRL-8155 cells; conditions: human lymphoblasts; for EC50: read-out: CRL-8155 EC50, concentration required to inhibit growth by 50%; for EC90: read-out: CRL-8155 EC90, concentration required to inhibit growth by 90%
Method: The selectivity of each compound for the parasite over each of the two cell lines was calculated.

[10] = Table 8, read-out: T. brucei EC50
[11] = Table 11, read-out: T. b. brucei EC50
[12] = Table 12, read-out: T. b. brucei EC50
[13] = Table 9, read-out: T. brucei EC50
[14] = both sexes, human, liver microsomes, pH 7.4
[15] = Table 14, mice, single ip dose 5 mg/kg, one hour post-dose
[16] = Table 14, mice, single ip dose 5 mg/kg, one hour post-dose, ± SEM of 3 mice (compound 3: 6 mice)
[17] = intraperitoneal, 5 mg/kg, Table 8, groups of 3 mice
[18] = Table 13, mice, single 50 mg/kg oral gavage, vehicle Tween 80 (7%), EtOH (3%), DMSO (5%) in 0.9% NaCl, ± SEM of 3 mice
[19] = Table 13, mice, single 50 mg/kg oral gavage, vehicle Tween 80 (7%), EtOH (3%), DMSO (5%) in 0.9% NaCl, ± SEM of 3 mice, read-out: Cmax
[20] = Table 8, groups of 3 mice (compound 3: ± SEM of 6 mice)

In the case of N=C(N)c1ccc(/N=N/Nc2ccc(C(=N)N)cc2)cc1 [diminazene aceturate, reference compound], the “parasitemia outcome (in words)” value [1] is reported as “temporary clearance of parasitemia, but subsequently relapsed”.

In the case of O=C(Nc1ccc2sc(-c3ccc(F)c(F)c3)nc2c1)N1C[C@@H](F)[C@H](F)C1 [Compound 35, (3R,4R)-2-(3,4-Difluorophenyl)-5-(3,4-difluoro-N-pyrrolidylamido)benzothiazole], the EC50 [2, 10] is reported as 114 nM, the EC50 [2, 11] is reported as 114 nM and the EC50 [2, 12] is reported as 114 nM. It also gave an EC50 [2, 13] of 114 nM, an EC90 ([2]; Table 9) of 747 nM and an EC50 [3] of 562 nM. The EC90 [3] was 652 nM, the “Human microsomes, percentage of compound remaining” value [4] was 96% and the half-life at 1.5 μM [4, 14] was greater than 1 h. For the same molecule, the “Mouse microsomes, percentage of compound remaining” value ([5]; Table 12, after 60 min (where t1/2 > 60 min)) was 67%, the half-life at 1.5 μM ([5]; male, CD-1, mouse, liver microsomes, pH 7.4, Table 12, 37° C., NADPH (1 mM), microsomes 0.5 mg/mL, test compounds 1.5 μM, read-out: Mouse microsomes t1/2) was greater than 1 h and the Brain/plasma ratio [6, 15] was 7.71 ± 1.63. The “[compound]Brain” value [6, 16] was 16.2 ± 2.88 µM, the “[compound]Plasma” value [6, 16] was 2.19 ± 0.424 µM and the Kp at 1 h [6, 17] was 7.71 ± 1.63. The concentration at 1 h ([6]; brain, intraperitoneal, 5 mg/kg, Table 8, groups of 3 mice (compound 3: ± SEM of 6 mice), read-out: Average [compound] brain) was 16200 ± 2880 nM, the concentration at 1 h ([6]; plasma, intraperitoneal, 5 mg/kg, Table 8, groups of 3 mice (compound 3: ± SEM of 6 mice), read-out: Average [compound] plasma) was 2190 ± 424 nM and the “AUC0 min-∞” value [7, 18] was 13515 ± 224.6 µM·min. The Cmax [7, 19] was 11000 ± 580 nM, the “percent of the Cmax remaining” value ([7]; 24 h time point) was 34% and the “percent of the Cmax remaining” value ([7]; 32 h time point) was greater than 17%. It also gave an EC50 [8] greater than 50000 nM, an EC90 [8] greater than 50000 nM and a melting point of 217 to 218 °C. The EC50 [9] was 27100 nM and the EC90 [9] was greater than 50000 nM.

Molecule O=C(Nc1ccc2sc(-c3ccc(F)c(F)c3)nc2c1)N1CCCC1 [Compound 2, 2-(3,4-Difluorophenyl)-5-(N-pyrrolidylamido)benzothiazole] has an EC50 ([2]; Table 7, read-out: T. brucei EC50) of 91.8 nM, an EC50 [2, 10] of 91.8 nM and an EC50 [2, 11] of 91.8 nM. For the same molecule, the EC50 [2, 12] was 91.8 nM, the EC50 [2, 13] was 91.8 nM and the EC90 ([2]; Table 9) was 181 nM. For the same molecule, the EC50 [3] was 339 nM, the EC90 [3] was 483 nM and the “Human microsomes, percentage of compound remaining” value [4] was 66%. For the same molecule, the half-life at 3 μM ([4]; both sexes, human, liver microsomes, pH 7.4, Table 5, read-out: Microsome t1/2 (min) Human) was greater than 60 min, the half-life at 1.5 μM [4, 14] was greater than 1 h and the “Microsome t1/2 (min) Mouse” value ([5]; Table 5) was 13.8 min. The “Mouse microsomes t1/2” value ([5]; Table 12, 37° C., NADPH (1 mM), microsomes 0.5 mg/mL, test compounds 1.5 μM) was 0.233 h, the “Average [compound] brain” value [6, 20] was 4.25 ± 1.20 µM and the “Average [compound] plasma” value [6, 20] was 2.61 ± 1.26 µM. It also gave a Brain/plasma ratio [6, 15] of 1.81 ± 0.458, a Kp at 1 h ([6]; intraperitoneal, 5 mg/kg, Table 5, mouse brain penetration (60 min), n = 3) of 1.81 ± 0.793 and a Kp at 1 h ([6]; intraperitoneal, 5 mg/kg, Table 7, groups of 3 mice) of 1.81 ± 0.793. The Kp at 1 h [6, 17] was 1.81 ± 0.793, the concentration at 1 h ([6]; brain, intraperitoneal, 5 mg/kg, Table 7, groups of 3 mice, read-out: Average [compound] brain) was 4250 ± 1200 nM and the concentration at 1 h ([6]; plasma, intraperitoneal, 5 mg/kg, Table 7, groups of 3 mice, read-out: Average [compound] plasma) was 2610 ± 1260 nM. For the same molecule, the concentration at 60 min ([6]; plasma, intraperitoneal, 5 mg/kg, Table 5 r15, mouse brain penetration (60 min), n = 3) was 2610 ± 1260 nM, the “Mouse oral PK Tlast” value ([7]; Table 5) was 480 min and the “Mouse oral PK Average AUC” value ([7]; Table 5, n = 3) was 408 ± 95 (n = 3) min * μmol/L. For the same molecule, the “AUC0 min-∞” value [7, 18] was 443.3 ± 43.07 µM·min, the Cmax [7, 19] was 2010 ± 460 nM and the Cmax ([7]; mouse, plasma, po, 50 mg/kg, Table 5, n = 3, read-out: Mouse oral PK Average Cmax) was 2000 ± 820 nM. The Tmax ([7]; mouse, plasma, po, 50 mg/kg, Table 5, read-out: Mouse oral PK Tmax (converted)) was 1 h, the EC50 [8] was greater than 50000 nM and the EC90 [8] was greater than 50000 nM. For the same molecule, the melting point was 221 to 223 °C, the EC50 [9] was 33900 nM and the EC90 [9] was greater than 50000 nM.
